From a melting point compilation (Tetko et al.; mined from patent text by program, amines drawn as free bases though some values may be those of a salt)

melting point	Compound
147 to 151 °C	Cn1cc(-c2ccc(C(F)(F)F)cc2)c(=O)c(-c2cccc(Cl)c2)c1
215 °C	Cc1ccc2c(c1)C=Cc1cc(C)ccc1C2c1cn(-c2cc(N(C)CC(=O)Nc3nc(CC(=O)O)cs3)ncn2)c(=O)[nH]c1=S
184 to 185 °C	COC(=O)C(CCSC)N(C(=O)OC(C)(C)C)C(=O)c1ccc(N)cc1 (stereo unspecified)
51 to 52 °C	CCCCCCC1=C(O)C(=O)CO1
301 °C	CN1CCN(S(=O)(=O)c2cc(NC(=O)c3cnn4c(C(F)(F)F)cc(-c5ccc(C(F)(F)F)cc5)nc34)c(Cl)s2)CC1
167 °C	N#Cc1cc(CO)nc(C(=O)Nc2cccc(Cl)c2)c1
270 to 272 °C	CC(=O)Oc1cc(O)c(Cl)cn1
215 °C	O=C1CN(C(=O)COc2cc(-c3ccccc3)nc3ccccc23)CCN1
142 to 143 °C	CCCCCc1nc2cnc3ccccc3c2[nH]1
128 to 129 °C	OC1c2cc(OCc3ccc4ccccc4n3)ccc2OCCC1Oc1ccccc1 (stereo unspecified)
232 °C	CCCCN(C(=O)C(=O)O)c1cccc(NC(=O)C(=O)O)c1
248 to 250 °C	CC1CC(=O)N(Cc2ccccc2)c2ccccc2N1C(=O)CN1C(=O)c2ccccc2C1=O (stereo unspecified)
158 to 160 °C	CCOC(=O)c1cn(CC)c2occc2c1=O
216 to 218 °C	O=c1c2c(Cc3ccc(OC(F)(F)F)cc3)n[nH]c2c2cccnc2n1-c1ccccc1
107 to 108 °C	O=C1OCc2ccc(CO)cc21
134 °C	c1ccc(C2(c3ccccc3)CCSCC2)cc1
153 to 156 °C	CCOC(=O)c1cc2cccnc2[nH]1
151 to 153 °C	CNc1nc(-c2cccc(NC(=O)c3ccnc(Cl)c3)c2)c2cc(OC)c(OC)cc2n1
114 to 118 °C	CC(C)CNc1c([N+](=O)[O-])cnc2ccccc12
103 to 104 °C	CCOC(=O)c1c(C(C)C)c(S(=O)(=O)c2ccc(OC)cc2)n2ccccc12
214 to 216 °C	CCCc1nn(C)c2c(=O)[nH]c(-c3cc([N+](=O)[O-])ccc3OCC)nc12
185 to 186 °C	Cc1ccc(C(=O)/C=C/c2cc(C(C)(C)C)c3oc(=O)c(C(=O)O)cc3c2)cc1
121 to 123 °C	COc1c(C)cc2c(c1C)C(c1ccc(C(C)C)cc1)C(C)(C)O2 (stereo unspecified)
188 to 189 °C	C=Cc1c(F)c(F)c(F)c2c1c(=O)c(C(=O)OCC)cn2C1CC1

melting point	Compound
180 to 181 °C	COc1ccc(CSc2nnc(-c3ccnc(NC(=O)CCc4ccccc4)c3)o2)cc1C(F)(F)F
230 to 232 °C	COc1cc(-c2cnc3[nH]cc(I)c3n2)cc(OC)c1OC
114 to 115 °C	COc1ccc(CNc2ncc[nH]2)cc1OC1CCCC1
112 to 114 °C	CCN[C@@H]1CCCC[C@H]1NS(=O)(=O)c1ccc(C)cc1 (relative stereo)
65 to 66 °C	CSc1ccc(CCl)cc1C(F)(F)F
205 to 207 °C	O=C(NCc1cccc(OCCOc2nc[nH]n2)c1)c1nc2ccc(F)c(F)c2c(=O)[nH]1
221 to 223 °C	Brc1ccc(Br)c2nc(-c3ccccc3)c(-c3ccccc3)nc12
200 to 210 °C	CCCCn1c(=O)[nH]c2cccnc2c1=O
> 275 °C	CN1C(=O)CCC(C)(C)c2cc(NC(=O)c3ccc(C(=O)O)cc3)ccc21
142 °C	N#CN1CCC2(CC1)C(=O)c1cc(Cl)ccc1Sc1ccccc12
163 to 165 °C	CC(=O)OC(Cn1cncn1)(c1ccc(F)cc1F)C1(S(=O)(=O)Cl)CC1 (racemic)
186 to 187 °C	CC(=O)NC[C@H]1CN(c2ccc3c(c2)C[C@@H](C)N3C(=O)COC(C)=O)C(=O)O1
219 °C	O=[N+]([O-])c1ccc(-n2nc(CO)c3c2CCCC3)cc1
70 to 71 °C	COc1ccc(-c2coc3cc(OCC(O)CNC4CCCCC4)ccc3c2=O)cc1OC (stereo unspecified)
87 to 89 °C	CC(CCCC(=O)O)(c1ccc(OCc2ccc3ccccc3n2)cc1)c1ccc(OCc2ccc3ccccc3n2)cc1
128 to 129 °C	CC(C)(C)OC(=O)NC(Cc1cc2ccccc2s1)C(=O)O (stereo unspecified)
> 320 °C	CC(C)=CCn1c(=S)sc2c(=O)[nH]c(N)nc21
189 to 190 °C	COc1ccccc1C=C1NC(=O)N(C)C1=O
100 to 102 °C	COC1=C(OC)C(=O)C2=C(CC(CCCOc3ccc(C(=O)N(C)C)cc3)C2)C1=O
101 to 103 °C	CC(C)(C)c1cc(C(=O)c2nccs2)cc2c1OCC2(C)C
123 to 124 °C	CCOC(=O)c1c[nH]nc1-c1cccs1
83 to 85 °C	COc1ccc(C(=O)CSc2ccccc2)cc1
220 to 223 °C	COC(=O)c1ccc2c(c1)C1(O)C(=O)c3ccccc3C1(O)O2 (stereo unspecified)
180 °C	CCN(CC)CCN1c2cc(Cl)ccc2S[C@H]2[C@@H](O)[C@H](O)[C@@H](COC(C)=O)O[C@H]21

melting point	Compound
214 to 217 °C	C=CS(=O)(=O)c1cc2c(Nc3cccc(Br)c3)ncnc2cn1
179 to 180 °C	C#CCCC(=O)N1c2ccccc2C(=O)Nc2cccnc21
203 to 205 °C	Cc1[nH]cnc1C(=O)OCc1ccccc1
188 to 189 °C	COC(=O)C1=C(C)NC(C)=C(C(=O)OC)C1c1ccccc1Cl
90 to 91 °C	CN(C)C(=O)c1cc(-c2ncc(C(F)(F)F)cc2Cl)ccc1Cl
54 to 56 °C	CCOP(=O)(Cc1cccc(NC(=O)C2=Cc3cc(C4CCCCC4)ccc3CC2)c1)OCC
130 to 131 °C	Nc1cc(CCC(=O)NC2CCc3ccccc32)ccc1O (stereo unspecified)
120 to 121 °C	COc1cc2c(c(OC)c1)C1=C(CC2)C2=CCC(=O)C2(C)CC1 (stereo unspecified)
88.5 to 90 °C	CCC1CN(c2cccc(C(C)C)c2)C(=O)C1c1cccc(Cl)c1 (stereo unspecified)
99 to 101 °C	Cc1ccc(S(=O)(=O)C#CBr)cc1
205 °C	N#Cc1ncn2c(C(F)(F)F)cc(-c3ccccn3)nc12
60 to 61.5 °C	N#Cc1ccc(OCCCn2ccnc2)cc1
61 to 64 °C	COC(=O)c1cc(OCCCCCCCCCCCCOc2ccccc2)ccc1O
183 to 184 °C	Cn1c(=O)c2c(nc(Cl)n2Cc2ccc(F)cc2)n(C)c1=O
120 to 121 °C	COc1cc2c(cc1OC)C(CNC(=O)N(C)O)CC2 (stereo unspecified)
199 °C	O=P(O)(O)C(O)(CC1(c2ccc(Cl)cc2)C=CN(c2ccccc2)N1)P(=O)(O)O (stereo unspecified)
142 to 146 °C	CC1OC(n2cc(F)c(NC(=O)c3ccc(Cl)cc3)nc2=O)C(O)C1O (stereo unspecified)
142 to 144 °C	COc1cc(CCNC(C)=O)c(C(=O)Cc2cc(OC)c(OC)cc2[N+](=O)[O-])cc1OC
116 to 118 °C	COS(=O)(=O)c1cc(C(C)(C)C)c(O)c(C(C)(C)C)c1
107 to 108 °C	CC(C)(COc1ccc(CSC2NC(=O)CC2=O)cc1)c1ccccc1 (stereo unspecified)
224 to 225 °C	Brc1ccc2c(c1)[nH]c1cc(Br)ccc12
68 to 69 °C	FC(F)=C(F)CCSc1nnc(-c2ccc(Cl)cc2)s1
131 to 132 °C	CC(C)(C)Oc1cccc(C[C@@H](C(=O)O)[C@@H](O)c2ccc(F)cc2)c1 (racemic)
231 to 233 °C	COc1cc2ncc(C#N)c(Nc3cccnc3)c2cc1OC

melting point	Compound
248 to 250 °C	CCCc1c(OCc2ccc(C(=O)O)cc2OC)ccc(C(C)=O)c1O
141 to 143 °C	O=C(O)[C@H](Cc1ccc(OCCc2coc(-c3ccccc3)n2)cc1)NS(=O)(=O)Cc1ccccc1
184 to 186 °C	CCN(CCOC)C(=O)c1cc(-c2ccccc2)c(=O)[nH]c1-c1c(Cl)cccc1C#N
184 to 186 °C	O=c1c2cc(F)c(F)cc2n(-c2ccc(F)c(Cl)c2)c(=O)n1OCc1ccccc1
141 to 142 °C	Cc1noc(-c2ccccc2NC(=O)OC2CCNCC2)n1
91 to 96.8 °C	COc1cc(-c2ccc(NC(=O)OC(C)(C)C)cc2)c(C(C)=NOCc2ccc([N+](=O)[O-])cc2)cc1O
153 to 154 °C	O=C(NCC(F)(F)F)c1ccc(C=NO)cc1
177 to 180 °C	COc1c(Cl)ccc(-c2cc(N)c(Cl)c(C(=O)NOCc3ccc(Cl)cc3)n2)c1F
148 to 149 °C	O=C(NCC1CCOCC1)Nc1ccc(C(F)(F)F)cc1
102 to 104 °C	COc1cc(C(C)=O)ccc1OCCCN1CCC(c2noc3ccccc23)CC1
180 °C	CCc1c(C)[nH]c(=O)c(CC)c1Oc1cc(C)cc(C)c1
121 to 129 °C	COc1nc(Cl)c(-c2c(F)cc(F)cc2F)c(N[C@@H](C)C(F)(F)F)n1
91 to 92 °C	Cc1nc(-c2ccc(OC(C)C)c([N+](=O)[O-])c2)sc1C(=O)OC(C)C
180 to 185 °C	CC(=O)c1ccc(-c2ccc(C(=O)NCCCCN3CCC(c4ccc5c(c4O)CCCC5)CC3)cc2)cc1
240 to 245 °C	CC(C)n1c(=O)nc(-c2ccc(N(C)C)cc2)c2cc3c(cc21)OCO3
76 to 82 °C	O=C(O)CCNC(=O)C(CS)Cc1ccccc1 (stereo unspecified)
> 240 °C	COc1ccc(C(=O)Nc2ccccc2)cc1NCc1ccc(C(=O)O)cc1
97 to 98 °C	COC(=O)C[C@H](CCC(=O)OCc1ccccc1)NC(=O)OC(C)(C)C
233 to 235 °C	COC(=O)/C=C\C(=O)Nc1ccc2c(=O)n3c(nc2c1)C(=Cc1ccccc1)CC3
68 to 70 °C	OCc1ccc(C=Cc2csc3ccccc23)s1
158 to 161 °C	CON=C(C)CCCn1c(C)nc2c(N)nc3ccccc3c21
172 to 174 °C	CC(Oc1ccccc1)(c1ccc(O)cc1)c1ccc(O)cc1
> 260 °C	O=C1c2ccccc2C(=O)c2sc(Nc3ccccc3)nc21

Compound	melting point
CC(C)(C)c1cc(C(=O)c2ccn(Cc3ccccc3)c2)cc(C(C)(C)C)c1O	123 to 124 °C
Clc1cc(I)ccc1CBr	44 to 45.5 °C
COC12CC(COS(=O)(=O)c3ccc(C)cc3)CN(C)C1Cc1cn(C(C)(C)C)c3cccc2c13 (stereo unspecified)	150 to 152 °C
COc1cc2c(cc1-c1cc(-c3ccc(C#N)cc3)on1)C(C)(C)CCC2(C)C	202 to 203 °C
CC(C)(C)NCC(O)c1cc(F)c(N)cc1F (stereo unspecified)	115 to 116 °C
CSC(=N[N+](=O)[O-])NCc1ccc(Cl)nc1	140 to 142 °C
